Assay results published in patent US20220033448A1, “METHODS FOR AGGREGATION OF PROTEINS” (priority 2011, published 2022).
Values after ≈ are worked out from the molar mass of the structure shown. Non-standard residues stand in square brackets, D forms with d. Residues, ends and D or L forms follow the SMILES beside them. No end group written: not given here. PEG3 = NCCOCCOCCOCCC(=O)O; AEEA = NCCOCCOCC(=O)O

How the values were obtained:
[1] = tested on: E. coli
Procedure: (§1) Bacteria were grown in a shaking incubator at 37° C. and 160rpm in 50 ml BHI , using individual colonies retrieved from a fresh overnight TSA-sheep blood plate. The cultures were grown to a density of approximately 1×10^8cells/ml and then diluted to 5×10^5 cells/ml in CAMHB (Mc Farland 0.5). Each well contained 100p.I (50p.I of peptide containing MHB plus 50 μl inoculum). The final cell density was 1×10^5 to 5×10^5/ml. After addition of the cell suspension, plates were incubated at 37° C. for 18 to 24 hours. The optical density at 590 nm (OD590) of each well was measured after 5 seconds of shaking the plate using Perkin Elmer spectrophotometer (1420 Multilabel Counter Vicotr 3). […] Each well, where no growth was observed, was also plated on TSA-sheep blood agar plates, incubated at 37° C. overnight and visually inspected.
(§2) A microbroth dilution method was used with twofold serial dilutions in CAMHB (according to EMEA guidelines) was used for screening of peptide activity, with concentrations ranging from 0.3 μg/mIto 200 μg/ml.

[2] = tested on: S. hominis
Procedure: as §1, §2

[3] = tested on: B. cereus
Procedure: as §1, §2

[4] = tested on: E. faecalis
Procedure: as §1, §2

[5] = tested on: Nocardia asteroides
Procedure: as §1, §2

[6] = tested on: S. epidermidis
Procedure: as §1, §2

[7] = tested on: Klebsiella pneumoniae; assay type: cell-based
[8] = tested on: Salmonella typhi ATCC14028; assay type: cell-based
[9] = tested on: S. aureus
Procedure: as §1, §2

[10] = tested on: Corynebacterium
Procedure: as §1, §2

[11] = target: β-Gal (Escherichia coli, UniProt P00722); settings: for binding to β-Gal on blot: 250 nM biotinylated peptide, 1 h, complete BL21 cell lysate
β-Gal, sequence (P00722 2-1024 with the stated changes limits assumed): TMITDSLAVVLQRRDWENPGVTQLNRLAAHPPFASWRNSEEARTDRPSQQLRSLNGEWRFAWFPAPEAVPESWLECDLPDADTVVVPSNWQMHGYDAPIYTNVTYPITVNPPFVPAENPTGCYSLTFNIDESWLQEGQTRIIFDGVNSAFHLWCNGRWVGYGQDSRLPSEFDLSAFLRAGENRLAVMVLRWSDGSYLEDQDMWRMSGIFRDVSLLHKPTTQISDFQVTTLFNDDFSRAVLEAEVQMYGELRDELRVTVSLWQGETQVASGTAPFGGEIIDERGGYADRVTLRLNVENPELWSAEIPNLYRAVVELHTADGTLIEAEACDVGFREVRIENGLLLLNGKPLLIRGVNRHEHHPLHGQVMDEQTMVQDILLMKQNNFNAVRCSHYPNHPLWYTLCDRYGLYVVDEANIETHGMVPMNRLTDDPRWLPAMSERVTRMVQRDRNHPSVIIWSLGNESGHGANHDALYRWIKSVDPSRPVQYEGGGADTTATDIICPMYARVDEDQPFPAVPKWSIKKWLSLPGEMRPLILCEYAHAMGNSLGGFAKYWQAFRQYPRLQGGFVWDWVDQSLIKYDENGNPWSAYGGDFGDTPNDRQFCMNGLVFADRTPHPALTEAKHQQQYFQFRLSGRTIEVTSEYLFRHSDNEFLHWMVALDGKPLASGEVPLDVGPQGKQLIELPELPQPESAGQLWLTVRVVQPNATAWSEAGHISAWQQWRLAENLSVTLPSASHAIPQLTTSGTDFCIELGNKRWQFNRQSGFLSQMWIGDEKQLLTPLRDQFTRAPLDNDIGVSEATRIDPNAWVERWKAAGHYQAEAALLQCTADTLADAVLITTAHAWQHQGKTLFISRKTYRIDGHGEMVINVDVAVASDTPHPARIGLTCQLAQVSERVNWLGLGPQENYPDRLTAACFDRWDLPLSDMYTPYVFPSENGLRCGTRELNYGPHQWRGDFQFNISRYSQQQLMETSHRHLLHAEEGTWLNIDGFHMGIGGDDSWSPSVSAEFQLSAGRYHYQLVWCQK
Procedure: A 0.4 ml suspension of BL21 cells (OD600 nm ^˜1.2) expressing β-Gal (grown under induced conditions) was centrifuged at 5000 g for 10 min at room temperature. The supernatant was discarded and 0.8 ml of bacterial protein extraction reagent (B-PER, Thermo scientific) containing protease inhibitor was added to the bacterial pellet and vortex mixed for 30 s in order to lyse the cells. To 21 μl of the complete BL21 cell lysate 5 μl of 5× SDS sample loading buffer (Fermentas) was added and heated at 99° C. for 3 min. This mixture (26 μl per well) was loaded in a 10-well NuPage 4-12% Bis-Tris gel and the proteins were separated under denaturing conditions. The separated proteins were then transferred to a nitrocellulose membrane and blocked overnight with 1% BSA in phosphate buffer saline, 0.05% Tween 20, pH 7.4 (PBS-T) at 4° C. Each lane of the membrane was cut out and separately incubated with either rabbit anti-β-Gal antibody either biotinylated Tango 1, either biotinylated Tango 2, or the biotinylated off-target peptide or either a biotinylated Tango 2 mutant peptide.
This was followed by 3×10 min wash with PBS-T and finally rinsed in deionised water for 10 min. The membrane strip was exposed to chemiluminescence HRP substrate reagent (SuperSignal West Femto Maximum Sensitivity Substrate, Thermo Fisher Scientific) and target protein visualized using Bio-Rad ChemiDoc XRS imaging system.
A stock solution (10 μM) of each of the biotinylated peptides was prepared in 100% DMSO. The peptide stock was diluted (1/400) in 10 mM MES buffer, 100 mM Trehalose, 0.05% Tween 20, pH 5.5 to obtain a final concentration of the peptide of 25 nM. The freshly prepared peptide solution was immediately added to the membrane strip and gently agitated at room temperature. After 15 min the peptide solution was decanted and the membrane strip was washed 3×10 min with 10 mM MES buffer, 0.05% Tween 20, pH 5.5 and further processed as described herein before.

[12] = tested on: PR8 virus; assay type: cell-based, influenza A virus (H1N1 strain)
[13] = tested on: human erythrocytes; assay type: cell-based
From the text: The detergent Tween was used as a positive control, causing 100% lysis of RBCs.

Molecule	Minimum inhibitory concentrations MIC90 [1] [µg/mL]	Minimum inhibitory concentrations MIC90 [2] [µg/mL]	Minimum inhibitory concentrations MIC90 [3] [µg/mL]	Minimum inhibitory concentrations MIC90 [4] [µg/mL]	Minimum inhibitory concentrations MIC90 [5] [µg/mL]	Minimum inhibitory concentrations MIC90 [6] [µg/mL]	Minimum inhibitory concentrations MIC90 [7] [µg/mL]	Minimum inhibitory concentrations MIC90 [8] [µg/mL]	also measured
CC[C@H](C)[C@H](NC(=O)[C@H](CC(C)C)NC(=O)CNC(=O)[C@H](CC(C)C)NC(=O)[C@H](CC(C)C)NC(=O)[C@@H](NC(=O)[C@H](CCCNC(=N)N)NC(=O)[C@H](CO)NC(=O)CNC(=O)[C@H](CCCNC(=N)N)NC(=O)[C@H](CCCNC(=N)N)NC(=O)[C@@H](NC(=O)[C@H](CC(C)C)NC(=O)CNC(=O)[C@H](CC(C)C)NC(=O)[C@H](CC(C)C)NC(=O)[C@@H](NC(=O)[C@H](CCCNC(=N)N)NC(=O)CCOCCOCCOCCN)[C@@H](C)CC)[C@@H](C)CC)[C@@H](C)CC)C(=O)N[C@@H](CCCNC(=N)N)C(=O)N[C@@H](CCCNC(=N)N)C(=O)O [P2154] (H-[PEG3]RILLGLIRRGSRILLGLIRR-OH)	50 (≈ 19.6 µM)	3 (≈ 1.18 µM)	12.5 (≈ 4.91 µM)	12.5 (≈ 4.91 µM)	6 (≈ 2.35 µM)	12.5 (≈ 4.91 µM)	100 (≈ 39.2 µM)	>200	–
RRWVSMLLRRGSRWVSMLLRR [Hit14]	–	–	–	–	–	–	–	–	MIC values against B.cereus ATCC [3]: 100 µg/mL; MIC values against S.epidermidis ATCC 12228 [6]: 50 µg/mL
Ac-RILLGLIRRGSRILLGLIRR-NH2 [P2170/P2]	25	3	6	12.5	3	12.5	>200	100	Minimum inhibitory concentrations MIC90 [9]: 12.5 µg/mL; Minimum inhibitory concentrations MIC90 [10]: 100 µg/mL
RRILLGLIRPPRTIIGLVRR [mtop_11]	–	–	–	–	–	–	–	–	MIC value [9]: >200 µg/mL; MIC value [6]: 12.5 µg/mL
RRIIGIIARPPRVLVTLLRR [mtop_22]	–	–	–	–	–	–	–	–	MIC value [9]: <200 µg/mL; MIC value [6]: 50 µg/mL
b~RPITVNPPFR [Off-Target]	–	–	–	–	–	–	–	–	binding to β-Gal on blot [11]: no interaction
O Z RTTIMAAFRGSRTTIMAAFR [interferor 2]	–	–	–	–	–	–	–	–	virus replication [12]: less strong
b~RVIPWSLGNR [Tango 2 Mut_2]	–	–	–	–	–	–	–	–	binding to β-Gal on blot [11]: still bind efficiently to β-Gal
RFFIGLSRRGSRIQAYLYRR [Hit50A]	–	–	–	–	–	–	–	–	MIC values against MRSA 326 [9]: 50 µg/mL; MIC values against S.aureus ATCC 29213 [9]: 100 µg/mL; MIC values against B.cereus ATCC [3]: 50 µg/mL
RWVSMLLRRGSRWVSMLLRR [Hit1]	–	–	–	–	–	–	–	–	MIC [9]: 3 µg/mL; MIC in presence of 50% FBS [9]: 25 µg/mL; MIC values against MRSA 326 [9]: 6 µg/mL; HD50 (concentration at which 50% of red blood cells are lysed) [13]: 25 to 50 µg/mL; MIC values against Corynebacterium [10]: 3 µg/mL; MIC values against B.cereus ATCC [3]: 6 µg/mL
CC[C@@H](C)[C@@H](NC(=O)[C@H](N)CCCNC(=N)N)C(=O)N[C@H](CC(C)C)C(=O)N[C@H](CC(C)C)C(=O)NCC(=O)N[C@H](CC(C)C)C(=O)N[C@@H](C(=O)N[C@H](CCCNC(=N)N)C(=O)N[C@H](CCCNC(=N)N)C(=O)NCC(=O)N[C@H](CO)C(=O)N[C@H](CCCNC(=N)N)C(=O)N[C@@H](C(=O)N[C@H](CC(C)C)C(=O)N[C@H](CC(C)C)C(=O)NCC(=O)N[C@H](CC(C)C)C(=O)N[C@@H](C(=O)N[C@H](CCCNC(=N)N)C(=O)N[C@H](CCCNC(=N)N)C(=O)O)[C@H](C)CC)[C@H](C)CC)[C@H](C)CC [DAA] (H-[dR][dI][dL][dL]G[dL][dI][dR][dR]G[dS][dR][dI][dL][dL]G[dL][dI][dR][dR]-OH; N-terminus and C-terminus assumed)	25 (≈ 10.7 µM)	1.5 (≈ 0.64 µM)	6 (≈ 2.56 µM)	6 (≈ 2.56 µM)	>200	1.5 (≈ 0.64 µM)	25 (≈ 10.7 µM)	100 (≈ 42.6 µM)	Minimum inhibitory concentrations MIC90 [10]: >200 µg/mL
RRILLLIARPPRILLGAIRR [mtop_12]	–	–	–	–	–	–	–	–	MIC value [9]: >200 µg/mL; MIC value [6]: 12.5 µg/mL
b~DVIIWSLGNR~b [Complimentary charge]	–	–	–	–	–	–	–	–	specificity of binding to β-gal versus serum proteins ([11]; competitive PepBlot, 7% clinical serum in adjacent lane, 25 nM, 15 min): does not cross react with proteins in the serum
CC[C@H](C)[C@H](NC(=O)[C@H](CC(C)C)NC(=O)CNC(=O)[C@H](CC(C)C)NC(=O)[C@H](CC(C)C)NC(=O)[C@@H](NC(=O)[C@H](CCCNC(=N)N)NC(=O)COCCOCCNC(=O)[C@H](CCCNC(=N)N)NC(=O)[C@H](CCCNC(=N)N)NC(=O)[C@@H](NC(=O)[C@H](CC(C)C)NC(=O)CNC(=O)[C@H](CC(C)C)NC(=O)[C@H](CC(C)C)NC(=O)[C@@H](NC(=O)[C@@H](N)CCCNC(=N)N)[C@@H](C)CC)[C@@H](C)CC)[C@@H](C)CC)C(=O)N[C@@H](CCCNC(=N)N)C(=O)N[C@@H](CCCNC(=N)N)C(N)=O [P2175/P1] (H-RILLGLIRR[AEEA]RILLGLIRR-NH2)	25 (≈ 10.7 µM)	3 (≈ 1.28 µM)	12.5 (≈ 5.33 µM)	12.5 (≈ 5.33 µM)	3 (≈ 1.28 µM)	12.5 (≈ 5.33 µM)	50 (≈ 21.3 µM)	50 (≈ 21.3 µM)	Minimum inhibitory concentrations MIC90 [10]: >200 µg/mL
RWVSMLLRRGSRVGYVIARR [Hit37]	–	–	–	–	–	–	–	–	MIC values against MRSA 326 [9]: 100 µg/mL; MIC values against S.aureus ATCC 29213 [9]: 100 µg/mL; MIC values against B.cereus ATCC [3]: >100 µg/mL
RRIILFILRPPRLILFLGRR [mtop_1]	–	–	–	–	–	–	–	–	MIC value [9]: 200 µg/mL; MIC value [6]: 50 µg/mL
H-RILLGLIRRGSRILLGLIRR-OH [P2151]	25	3	12.5	25	12.5	12.5	25	100	–
b~RLAVVLQR [Tango 1]	–	–	–	–	–	–	–	–	binding to β-Gal on blot [11]: weaker binding
CC[C@H](C)[C@H](NC(=O)[C@H](CC(C)C)NC(=O)CNC(=O)[C@H](CC(C)C)NC(=O)[C@H](CC(C)C)NC(=O)[C@@H](NC(=O)[C@H](CCCNC(=N)N)NC(=O)COCCOCCNC(=O)[C@H](CCCNC(=N)N)NC(=O)[C@H](CCCNC(=N)N)NC(=O)[C@@H](NC(=O)[C@H](CC(C)C)NC(=O)CNC(=O)[C@H](CC(C)C)NC(=O)[C@H](CC(C)C)NC(=O)[C@@H](NC(=O)[C@@H](N)CCCNC(=N)N)[C@@H](C)CC)[C@@H](C)CC)[C@@H](C)CC)C(=O)N[C@@H](CCCNC(=N)N)C(=O)N[C@@H](CCCNC(=N)N)C(N)=O [P2175/P2] (H-RILLGLIRR[AEEA]RILLGLIRR-NH2)	50 (≈ 21.3 µM)	1.5 (≈ 0.64 µM)	12.5 (≈ 5.33 µM)	6 (≈ 2.56 µM)	6 (≈ 2.56 µM)	6 (≈ 2.56 µM)	100 (≈ 42.6 µM)	25 (≈ 10.7 µM)	Minimum inhibitory concentrations MIC90 [10]: >200 µg/mL
RRLLGLIIRPPRAIALTLRR [mtop_17]	–	–	–	–	–	–	–	–	MIC value [9]: 50 µg/mL; MIC value [6]: 100 µg/mL
RRILGLIARPPRIAFVILRR [mtop_18]	–	–	–	–	–	–	–	–	MIC value [9]: <200 µg/mL; MIC value [6]: 50 µg/mL
Ac-RILLGLIRRGSRILLGLIRR-NH2 [P2170/P1]	25	3	6	12.5	6	6	>200	100	Minimum inhibitory concentrations MIC90 [9]: 12.5 µg/mL; Minimum inhibitory concentrations MIC90 [10]: >200 µg/mL
b~RVPIWSLGNR [Tango 2 Mut_1]	–	–	–	–	–	–	–	–	binding to β-Gal on blot [11]: still bind efficiently to β-Gal
b~RVIIWSLGNR [Tango 2]	–	–	–	–	–	–	–	–	binding to β-Gal on blot [11]: strong affinity to the β-Gal
CC[C@H](C)[C@H](NC(=O)[C@H](CC(C)C)NC(=O)CNC(=O)[C@H](CC(C)C)NC(=O)[C@H](CC(C)C)NC(=O)[C@@H](NC(=O)[C@H](CCCNC(=N)N)NC(=O)[C@H](CO)NC(=O)CNC(=O)[C@H](CCCNC(=N)N)NC(=O)[C@H](CCCNC(=N)N)NC(=O)[C@@H](NC(=O)[C@H](CC(C)C)NC(=O)CNC(=O)[C@H](CC(C)C)NC(=O)[C@H](CC(C)C)NC(=O)[C@@H](NC(=O)[C@H](CCCNC(=N)N)NC(=O)COCCOCCN)[C@@H](C)CC)[C@@H](C)CC)[C@@H](C)CC)C(=O)N[C@@H](CCCNC(=N)N)C(=O)N[C@@H](CCCNC(=N)N)C(=O)O [P2153] (H-[AEEA]RILLGLIRRGSRILLGLIRR-OH)	25 (≈ 10 µM)	3 (≈ 1.2 µM)	6 (≈ 2.41 µM)	25 (≈ 10 µM)	6 (≈ 2.41 µM)	12.5 (≈ 5.02 µM)	50 (≈ 20.1 µM)	>200	–
RLFNFLKRGSRLFNFLKR [C29/Hit11]	–	–	–	–	–	–	–	–	MIC values against MRSA 326 [9]: 12.5 µg/mL; MIC values against S.aureus ATCC 29213 [9]: 12.5 to 25 µg/mL; hemolytic activity [13]: no significant hemolytic activity at clinically relevant concentrations; MIC values against Corynebacterium [10]: 6 µg/mL; MIC values against B.cereus ATCC [3]: 6 to 12.5 µg/mL
